For series [1], the target named is T1, 5-hydroxytryptamine receptor 1A (Homo sapiens) (UniProt P08908).
T1 sequence (whole entry): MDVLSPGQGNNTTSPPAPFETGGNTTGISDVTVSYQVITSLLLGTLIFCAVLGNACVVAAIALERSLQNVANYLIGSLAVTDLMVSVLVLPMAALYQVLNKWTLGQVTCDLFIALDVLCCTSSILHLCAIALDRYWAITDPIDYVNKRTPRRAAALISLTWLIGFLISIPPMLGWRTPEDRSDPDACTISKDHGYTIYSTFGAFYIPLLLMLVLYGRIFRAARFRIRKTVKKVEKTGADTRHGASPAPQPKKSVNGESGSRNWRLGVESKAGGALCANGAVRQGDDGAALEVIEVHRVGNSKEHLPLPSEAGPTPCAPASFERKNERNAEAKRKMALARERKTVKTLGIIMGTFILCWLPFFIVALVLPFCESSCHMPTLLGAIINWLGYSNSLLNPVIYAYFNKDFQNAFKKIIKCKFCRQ
Nature of the series: Intrinsic activity at human cloned 5HT1A receptor expressed in CHO cells. Type of series: cell-based.

Series [2] deals with Sodium-dependent serotonin transporter (Rattus norvegicus, UniProt P31652). Put plainly: Inhibition of [3H]5HT reuptake at SERT in rat cortical synaptosomes. Type of series: subcellular, Brain.
Sequence of Sodium-dependent serotonin transporter (P31652 whole entry): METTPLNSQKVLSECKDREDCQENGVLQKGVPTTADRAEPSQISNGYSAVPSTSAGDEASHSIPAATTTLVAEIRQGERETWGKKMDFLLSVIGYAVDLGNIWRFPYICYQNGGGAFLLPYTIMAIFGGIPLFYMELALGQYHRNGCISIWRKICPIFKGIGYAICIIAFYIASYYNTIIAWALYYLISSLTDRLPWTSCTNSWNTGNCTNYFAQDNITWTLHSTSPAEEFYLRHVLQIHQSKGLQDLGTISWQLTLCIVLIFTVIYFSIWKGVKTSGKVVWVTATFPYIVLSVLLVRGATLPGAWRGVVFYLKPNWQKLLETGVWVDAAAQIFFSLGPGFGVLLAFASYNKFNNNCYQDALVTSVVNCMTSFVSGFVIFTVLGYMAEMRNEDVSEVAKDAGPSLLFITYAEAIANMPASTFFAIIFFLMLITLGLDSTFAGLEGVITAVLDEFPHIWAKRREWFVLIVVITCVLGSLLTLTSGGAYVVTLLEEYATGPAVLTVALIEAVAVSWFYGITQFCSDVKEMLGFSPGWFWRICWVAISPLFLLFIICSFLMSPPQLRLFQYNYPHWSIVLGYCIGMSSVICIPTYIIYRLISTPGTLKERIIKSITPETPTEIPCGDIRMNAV
In series [3] the target is T2, 5-hydroxytryptamine receptor 1B (Homo sapiens, UniProt P28222). Nature of the series: Displacement of [3H]5HT from human cloned 5HT1B receptor expressed in CHO cells. Type of series: cell-based. (In general: In a radioligand displacement assay an active substance lowers the binding of a labelled ligand.)
T2 sequence (P28222 whole entry): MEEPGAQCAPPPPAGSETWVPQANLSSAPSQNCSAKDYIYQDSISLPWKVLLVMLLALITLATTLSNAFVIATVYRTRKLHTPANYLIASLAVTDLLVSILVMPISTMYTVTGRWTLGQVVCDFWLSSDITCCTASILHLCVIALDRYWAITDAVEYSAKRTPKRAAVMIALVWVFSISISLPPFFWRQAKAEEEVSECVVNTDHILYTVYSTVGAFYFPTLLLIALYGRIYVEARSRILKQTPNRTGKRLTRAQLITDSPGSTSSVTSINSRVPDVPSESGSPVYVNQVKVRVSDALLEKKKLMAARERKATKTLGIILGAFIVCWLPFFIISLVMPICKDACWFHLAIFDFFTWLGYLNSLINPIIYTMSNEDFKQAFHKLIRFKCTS
The target in series [4] is T3, 5-hydroxytryptamine receptor 1A (Homo sapiens, UniProt P08908).
T3 sequence (P08908 whole entry): T1 sequence (whole entry)
Nature of the series: Displacement of [3H]5HT from human cloned 5HT1A receptor expressed in CHO cells. The format is cell-based.

The target in series [5] is T4, 5-hydroxytryptamine receptor 1D (Homo sapiens, UniProt P28221). Nature of the series: Displacement of [3H]5HT from human cloned 5HT1D receptor expressed in CHO cells. Type of series: cell-based.
T4 sequence (P28221 whole entry): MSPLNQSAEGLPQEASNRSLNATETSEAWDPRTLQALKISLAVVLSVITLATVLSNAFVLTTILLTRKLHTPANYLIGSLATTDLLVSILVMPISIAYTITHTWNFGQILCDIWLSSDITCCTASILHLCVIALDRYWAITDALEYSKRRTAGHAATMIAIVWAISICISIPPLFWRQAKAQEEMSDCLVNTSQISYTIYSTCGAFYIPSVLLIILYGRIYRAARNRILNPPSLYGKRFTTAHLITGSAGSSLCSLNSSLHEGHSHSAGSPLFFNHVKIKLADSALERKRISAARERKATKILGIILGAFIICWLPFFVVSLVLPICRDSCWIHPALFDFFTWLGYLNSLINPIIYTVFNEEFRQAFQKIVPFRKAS
For series [6], the target named is T2, 5-hydroxytryptamine receptor 1B. Put plainly: Intrinsic activity at human cloned 5HT1B receptor expressed in CHO cells. Type of series: cell-based.
Series [7] can be described thus: Clearance in rat at 3 mg/kg, po. Type of series: ADME, organism-based. Also on record: dose 3 mg/kg, route oral. As to conditions: in vivo.
The nature of series [8]: Cmax in rat at 3 mg/kg, po. The format is ADME, organism-based. The arrangement: dose 3 mg/kg, route oral. Conditions: in vivo.
The nature of series [9]: Oral bioavailability in rat at 3 mg/kg. The format is ADME, organism-based. As to conditions: in vivo.
Series [10] has as its target T4, 5-hydroxytryptamine receptor 1D. Nature of the series: Intrinsic activity at human cloned 5HT1D receptor expressed in CHO cells. Type of series: cell-based.

Each structure is given as a SMILES string. A value given as a limit tells only on which side of the number the result lay.

As for `Cc1ccc2c(N3CCN(CCCc4ccc5c(c4)NC(=O)CO5)CC3)cccc2n1`, in series [1], the Intrinsic activity came to 0.

The Ki is the equilibrium dissociation constant of an inhibitor or competing ligand from its target. A low value points to a stronger hold on the target. As to `Cc1ccc2c(OC3CCN(CCc4ccc5c(c4)NC(=O)CO5)CC3)cccc2n1`, the Ki in series [2] was 100 nM; in series [3], 25.1 nM; in series [4], 316 nM; in series [5] it was 6.31 nM.

As to `Cc1ccc2c(OC(C)CN3CCC(Cc4ccc5c(c4)NC(=O)CO5)CC3)cccc2n1` (racemic), the Ki in series [2] is 251 nM; in [3] it was 200 nM; in [4], 398 nM; in series [5] it was 79.4 nM.

As a reminder, the CL/F is the apparent clearance, not corrected for the fraction that reaches the circulation. In general, Cmax refers to the highest concentration seen after dosing. One may read the bioavailability as dose-corrected exposure relative to a reference, in per cent. Read a low bioavailability as poor availability. Take `Cc1ccc2c(N3CCN(CCc4ccc5c(c4)NC(=O)CO5)CC3)cccc2n1`: the Intrinsic activity in series [1] was 0.2; in series [6] it was 0.1. For the same molecule, the CL/F in series [7] turned out to be 7 mL/min/kg. In series [8], the Cmax was determined as 360 ng/mL. This molecule also gave a bioavailability in [9] of 72%.

As for `Cc1ccc2c(OC3CCN(Cc4ccc5c(c4)NC(=O)CO5)CC3)cccc2n1`, the Ki in series [2] was 200 nM; in series [3] it was greater than 2510 nM; in series [4], greater than 10000 nM; in [5], 1260 nM.

Consider `Cc1ccc2c(OCC(C)N3CCC(Cc4ccc5c(c4)NC(=O)CO5)CC3)cccc2n1` (single isomer, unassigned; enantiomer I), for which the Ki in [3] was 39.8 nM; in series [4] it was 50.1 nM; in series [5], 251 nM.

For the molecule `Cc1ccc2c(N3CCN(Cc4ccc5c(c4)NC(=O)CO5)CC3)cccc2n1`, the Ki was 794 nM in [2], greater than 10000 nM in series [3], 631 nM in series [4] and 126 nM in [5].

Regarding `Cc1ccc2c(OCCCN3CC(COc4ccc5c(c4)NC(=O)CO5)C3)cccc2n1`, the results for the Ki in [3], in [4] and in series [5] were 316 nM, 79.4 nM and 158 nM, respectively.

For the molecule `Cc1ccc2c(OCC(C)N3CCC(Cc4ccc5c(c4)NC(=O)CO5)CC3)cccc2n1` (single isomer, unassigned; enantiomer II), the results for the Ki in series [3], in series [4] and in series [5] were 100 nM, 100 nM and 501 nM, respectively.

Molecule `Cc1ccc2c(OCCCN3CC(Oc4ccc5c(c4)NC(=O)CO5)C3)cccc2n1` showed a Ki in [4] of 158 nM.

As to `Cc1ccc2c(OCCN3CCC(Cc4ccc5c(c4)NC(=O)CO5)CC3)cccc2n1`, the Intrinsic activity in [1] is 0.1; in series [6] it was 0.5; in series [10] it was 0.5.

Turning to `Cc1ccc2c(OCC3CCN(Cc4ccc5c(c4)NC(=O)CO5)CC3)cccc2n1`, in [4], the Ki was greater than 1580 nM.

As to `Cc1ccc2c(OC3CCN(CC(=O)c4ccc5c(c4)NC(=O)CO5)CC3)cccc2n1`, the figures for the Ki in series [3], in series [4] and in series [5] were greater than 5010 nM, greater than 10000 nM and 2000 nM, respectively.

For the molecule `Cc1ccc2c(OCCN3CC(COc4ccc5c(c4)NC(=O)CO5)C3)cccc2n1`, the Ki is 63.1 nM in [2], 50.1 nM in series [3], 50.1 nM in series [4] and 7.94 nM in series [5]. Also, the Intrinsic activity in [1] was determined as 0.3; in series [6], 0.5; in [10] it was 0.5.

As for `Cc1ccc2c(OCC3CCN(CC(=O)c4ccc5c(c4)NC(=O)CO5)CC3)cccc2n1`, the Ki was 794 nM in series [2], 631 nM in series [3], 501 nM in [4] and 251 nM in series [5].

The values are drawn from ChEMBL document CHEMBL1142481, “Novel 5-HT(1A/1B/1D) receptors antagonists with potent 5-HT reuptake inhibitory activity” (Bioorg Med Chem Lett, 2008).
